Data taken from patent US10442779B2, “Compositions and methods for treating Friedreich's ataxia” (Fratagene Therapeutics S.R.L., priority 2014, dated 2019).

How the values were obtained:
[1] = target: T1, frataxin in FRDA 798 and FRDA 214 lymphoblasts (Homo sapiens, UniProt Q16595); experiment: Frataxin accumulation in FRDA patient-derived lymphoblasts FRDA 798 and FRDA 214 (western blot); format: cell-based; settings: for mature frataxin accumulation in FRDA patient cells: FRDA 798 and FRDA 214 lymphoblasts, 10 μM, 5 days, vs vehicle
T1 construct: GM16798; host or cells: FRDA 798, FRDA 214 and FRDA 203 patient-derived lymphoblasts
T1 sequence (Q16595 42-210): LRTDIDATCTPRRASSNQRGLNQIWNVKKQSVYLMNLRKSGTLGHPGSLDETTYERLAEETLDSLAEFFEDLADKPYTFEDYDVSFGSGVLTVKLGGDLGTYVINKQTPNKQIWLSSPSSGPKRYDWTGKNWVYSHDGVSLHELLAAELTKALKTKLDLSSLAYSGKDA
Description: (§1) Cell culture and transfections. Human embryonic kidney HEK-293 cells were cultured in Dulbecco's modified Eagle's medium (DMEM) supplemented with 10% fetal bovine serum (FBS). HEK-293 cells were transfected using Lipofectamine 2000 reagents (Invitrogen), according to the manufacturer's instructions. Cells were plated on 6 cm dishes and transfected with 8 μg of total DNA (4 μg of pIRES-frataxin and 4 μg of HA-Ub). The day after transfection, cells were treated for 24 h with 10 μM UCM together with 10 μM proteasome inhibitor MG132 and 50 ng/ml deubiquitinating enzyme (DUB) inhibitor Ub-aldehyde. HEK-293 Flp-In cells (Invitrogen) are HEK-293 variants allowing the stable and isogenic integration and expression of a transfected gene. The HEK-293 clones stably expressing frataxin^1-210 or frataxin^K147R were previously described (Condo et al., 2007; Rufini et al., 2011). FRDA 214 (GM16214) and FRDA 798 (GM16798) lymphoblasts, from clinically affected FRDA patients, as well as FRDA 215 (GM16215) and FRDA 241 (GM16241) lymphoblasts, from the correspondent heterozygous clinically unaffected sibling, were obtained from Coriell Cell Repositories (Camden, N.J., USA) and were cultured in RPMI supplemented with 15% FBS.
Immunoblotting. Total cell extracts were prepared in IP buffer (50 mM Tris-HCl, pH 7.5, 150 mM NaCl, 1% Nonidet P-40, 5 mM EDTA, 5 mM EGTA) supplemented with Complete protease inhibitor cocktail (Roche Diagnostics). […] Protein extract (50 μg) was separated by 12% SDS-PAGE, blotted onto a nitrocellulose membrane and detected with specific antibodies. The immunoreactive bands were detected by ECL (GE Healthcare) and imaged with a ChemiDoc XRS system (Bio-Rad Laboratories). […]
UCM compounds promote frataxin accumulation in FRDA cells and rescue the aconitase defect. […] Frataxin levels were quantitated by western blot analysis on whole cell extracts using anti-frataxin antibody, or anti-tubulin, as a loading control. The relative frataxin abundance was quantitated by densitometric analysis and normalized with tubulin levels. […]

[2] = target: T2, frataxin^1-210 in HEK-293 Flp-In cells (293-frataxin) (Homo sapiens, UniProt Q16595); experiment: Frataxin precursor / mature frataxin accumulation in 293-frataxin cells (western blot); format: cell-based; settings: 10 μM; for frataxin precursor accumulation: 24 hrs, compared with UCM2 and MG132; for mature frataxin accumulation: 72 hrs (3 days)
T2 construct: 293 Flp-In cells stably expressing frataxin^1-210 were treated for 24 hrs; expressed in transfected cells
T2 sequence (Q16595 42-210): T1 sequence (Q16595 42-210)
Description: as §1
Immunoblotting. Total cell extracts were prepared in IP buffer (50 mM Tris-HCl, pH 7.5, 150 mM NaCl, 1% Nonidet P-40, 5 mM EDTA, 5 mM EGTA) supplemented with Complete protease inhibitor cocktail (Roche Diagnostics). For in vivo detection of ubiquitin conjugates, 10 μM MG132, 50 ng/ml Ub-aldehyde and 2 mM NEM were added to the lysis buffer. Protein extract (50 μg) was separated by 12% SDS-PAGE, blotted onto a nitrocellulose membrane and detected with specific antibodies. The immunoreactive bands were detected by ECL (GE Healthcare) and imaged with a ChemiDoc XRS system (Bio-Rad Laboratories). Densitometric analysis was performed using the ImageLab 4.1 Software (Bio-Rad Laboratories).
UCMs increase frataxin levels. To validate UCM activity, UCMs were tested their effect in human HEK-293 cells stably expressing single copy frataxin (293-frataxin). These cells allow the detection of all forms of frataxin, including the frataxin precursor. Compounds that were able to enhance frataxin precursor levels were synthesized, further chemically modified according to the docking model and tested again in 293-frataxin. Approximately 200 new candidate UCMs were tested in functional assays. Through this iterative process, new UCMs that promote frataxin precursor with surprising efficiency were identified.
293 Flp-In cells stably expressing frataxin^1-210 were treated for 24 hrs with 10 μM of the indicated UCM or 10 μM MG132 (MG). Total cell extracts were resolved on SDS-PAGE and analyzed with anti-frataxin antibody, or anti-tubulin, as a loading control. Pre: precursor; tub: tubulin.
293 Flp-In cells stably expressing frataxin^1-210 were treated for 72 hrs with 10 μM of the indicated UCM. Total cell extracts were resolved on SDS-PAGE and analyzed with anti-frataxin antibody, or anti-tubulin, as a loading control. Pre: precursor, int: intermediate, mat: mature; tub: tubulin.

frataxin ubiquitination = target: T3, frataxin ubiquitination (Homo sapiens, UniProt Q16595); experiment: In vivo (in-cell) frataxin ubiquitination assay in HEK-293 cells co-transfected with HA-Ub and frataxin; format: cell-based; settings: HEK-293, HA-Ub + frataxin^1-210, 10 μM UCM, with MG132 and Ub-aldehyde
T3 construct: 293 cells were transiently co-transfected with HA-Ub and frataxin^1-210; expressed in transfected cells; host or cells: HEK-293 cells, transient transfection (pIRES-frataxin plus HA-Ub)
T3 sequence (Q16595 42-210): T1 sequence (Q16595 42-210)
Description: Cell culture and transfections. Human embryonic kidney HEK-293 cells were cultured in Dulbecco's modified Eagle's medium (DMEM) supplemented with 10% fetal bovine serum (FBS). HEK-293 cells were transfected using Lipofectamine 2000 reagents (Invitrogen), according to the manufacturer's instructions. Cells were plated on 6 cm dishes and transfected with 8 μg of total DNA (4 μg of pIRES-frataxin and 4 μg of HA-Ub). The day after transfection, cells were treated for 24 h with 10 μM UCM together with 10 μM proteasome inhibitor MG132 and 50 ng/ml deubiquitinating enzyme (DUB) inhibitor Ub-aldehyde. […]
Immunoblotting. […] Protein extract (50 μg) was separated by 12% SDS-PAGE, blotted onto a nitrocellulose membrane and detected with specific antibodies. The immunoreactive bands were detected by ECL (GE Healthcare) and imaged with a ChemiDoc XRS system (Bio-Rad Laboratories). […]
UCMs prevent frataxin ubiquitination. To test whether the new compounds promote frataxin accumulation by preventing its ubiquitin/proteasome-dependent degradation, their impact on frataxin ubiquitination was evaluated. […] The ubiquitination status of frataxin was evaluated by SDS-PAGE of total cell lysates and anti-frataxin immunoblotting. […] Ubiquitination level was measured as the ratio between the levels of ubiquitinated frataxin and frataxin precursor. […]

[3] = target: T4, Human recombinant frataxin precursor (aa 1-210) (Homo sapiens, UniProt Q16595); experiment: Steady-state Trp fluorescence binding of UCMs to recombinant frataxin precursor; settings: for change of protein Trp fluorescence (ΔF/F0): 2 μM frataxin precursor, ligand 0.5 to 25 μM, 20° C; for half-saturation binding constant, L1/2: 2 μM native frataxin precursor, numbers only in FIG. 5
T4 construct: Human recombinant frataxin precursor (aa 1-210) was expressed and purified; purchased GenScript Corp., N.J., USA
T4 sequence (Q16595 1-210): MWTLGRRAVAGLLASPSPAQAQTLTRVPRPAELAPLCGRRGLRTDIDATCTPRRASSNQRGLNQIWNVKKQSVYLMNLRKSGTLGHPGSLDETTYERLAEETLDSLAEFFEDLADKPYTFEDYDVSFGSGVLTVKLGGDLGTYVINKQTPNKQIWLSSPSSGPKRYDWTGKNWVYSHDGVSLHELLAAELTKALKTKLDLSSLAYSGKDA
Description: Steady-state fluorescence measurements. Human recombinant frataxin precursor (aa 1-210) was expressed and purified by GenScript Corp., N.J., USA. Steady-state fluorescence spectra were recorded at 20° C. using an ISS PC1 fluorometer (Iss Inc, Champain, Ill. Usa). The affinity of frataxin for the ligands studied in this paper was determined by monitoring the decrease in Trp fluorescence upon the addition of these molecules to solutions. The concentration of the protein was 2 μM while the concentration of the ligands varied from 0.5 to 25 μM. At the excitation wavelength of 280 nm, emission spectra were recorded between 290 and 440 nm, using a 4×4 mm path-length quartz fluorescence microcuvette (Hellma GmbH & Co., Müllheim/Baden, Germany). The spectra were corrected using an instrument correction curve obtained with standard fluorescent compounds such as N-acetyl tryptophanamide (NATA). All measurements were also corrected for the inner-filter effect. To simulate the absorption of ligand molecules at the excitation and the emission wavelengths, two cuvettes (2 mm optical length), containing a solution of ligands in buffer, were placed along the excitation and emission pathways. The fluorescence of NATA was thus measured varying the concentration of quencher and four correction curves (one for each ligand) were obtained.
Data were then plotted as fractional loss of Trp fluorescence (ΔF/F0) versus ligand concentration. Experimental data were analyzed by nonlinear regression through a hyperbolic binding isotherm, using the Kaleidagraph program (Synergy Software).
UCMs interact with frataxin. Ubiquitin-competing molecules were selected through structure-based virtual screening for their potential ability to interact with frataxin on its ubiquitination site. Since they are in fact able to prevent frataxin ubiquitination and to interfere with its K147-dependent degradation, confirmation of their ability to physically interact with frataxin was sought. Therefore, the interaction propensities of frataxin with these molecules were investigated by fluorescence spectroscopy through the analysis of the changes of the signal of the protein tryptophan residues in the presence of the different compounds.
The graphs represent the fractional loss of the protein fluorescence intensity (ΔF/F0), in the presence of different concentration of ligand, versus the ratio between ligand and frataxin. The interaction with UCM53 was also analyzed in the case of frataxin precursor previously denaturated in 3M guanidinium hydrochloride (lower right panel). The half-saturation binding constant, L1/2 (μM), of frataxin precursor with different UCM is indicated in each panel.

[4] = tested on: aconitases activity in FRDA 214 lymphoblasts; experiment: Aconitase activity rescue in FRDA lymphoblasts; format: cell-based, human; settings: 5 days treatment
Description: Enzyme assays. For determinations of aconitases and citrate synthase activity, FRDA lymphoblasts were washed twice with ice-cold Dulbecco's Phosphate Buffered Saline (DPBS) and lysed in CelLytic M buffer (Sigma-Aldrich) supplemented with Complete protease inhibitor cocktail EDTA-free (Roche) and 2 mM trisodium citrate. Citrate was included to prevent the inactivation of iron-sulfur cluster of aconitases. Total aconitase activity was measured spectrophotometrically at 340 nm using the BIOXYTECH Aconitase-340™ Assay (OxisResearch™ 21041). The assay reactions, containing 150 μg of cell extract, were performed following the supplier's procedure, with the exception of temperature incubation at 25° C. Citrate synthase activity was assessed using 15 μg of cell extract with the Citrate Synthase Assay Kit (Sigma-Aldrich CS0720).
The aconitase activities were normalized with respect to citrate synthase ratios; one milliunit of enzyme was defined as the amount of protein that converted 1 nmol of NADP^+ in 1 min at 25° C.
Moreover, to validate a functional recovery of frataxin levels, rescue of cellular aconitases activity was evaluated in FRDA cells upon treatment with UCMs. […] Aconitases activity in cells derived from an unaffected carrier sibling (FRDA 215) is also shown for comparison.

[5] = target: T5, frataxin in FRDA 203 lymphoblast cell line (Homo sapiens, UniProt Q16595); experiment: Frataxin accumulation in FRDA 203 patient-derived lymphoblasts (western blot); format: cell-based; settings: FRDA 203 lymphoblasts, 1 μM, 4 days, vs DMSO; five experiments, P<0.05
T5 construct: GM16798; host or cells: FRDA 798, FRDA 214 and FRDA 203 patient-derived lymphoblasts
T5 sequence (Q16595 42-210): T1 sequence (Q16595 42-210)
Description: The efficacy of a specific compound, UCM166, was tested in FRDA patients-derived cells. (The structure of UCM166 is as shown previously.) FRDA patient-derived lymphoblast cell line FRDA 203 was cultured in the presence of 1 μM of UCM166 or DMSO alone (as a control) for 4 days. Total cell extracts were resolved on SDS-PAGE and analyzed in a western blot with anti-frataxin antibody, or anti-tubulin, as a loading control. FIG. 7 represents the relative frataxin abundance as quantified by densitometric analysis and normalized with tubulin levels. The data represent the mean±S.E.M. from five different independent experiments. P-value was calculated with Student's t-test and was statistically significant (**P<0.05) compared to non-treated conditions.

Row | SMILES | mature frataxin accumulation in FRDA patient cells [1] | frataxin precursor accumulation [2] | mature frataxin accumulation [2] | frataxin ubiquitination (ratio of ubiquitinated frataxin to frataxin precursor) (frataxin ubiquitination) | change of protein Trp fluorescence (ΔF/F0) [3] | half-saturation binding constant, L1/2 [3] | fluorescence changes with denatured protein ([3]; frataxin precursor denaturated in 3M guanidinium hydrochloride) | toxicity in long-term cell treatment ([1]; FRDA lymphoblasts, long-term (5 days) treatment) | aconitases activity (normalized to citrate synthase) [4] | relative frataxin abundance (normalized with tubulin) [5]
1 | C/C(=N\NC(=O)c1ccc(C)cc1C)c1ccc2c(c1)Nc1ccccc1S2 [UCM53] | significant accumulation of mature frataxin | induce frataxin precursor accumulation | accumulation of mature frataxin | significantly abrogate frataxin ubiquitination | strong fluorescence changes | lowest binding affinity constants | completely lost |  |  | 
2 | C/C(=N\NC(=O)c1cc2ccccc2cc1O)c1ccc2c(c1)Nc1ccccc1S2 [UCM71] |  | induce frataxin precursor accumulation | accumulation of mature frataxin | significantly abrogate frataxin ubiquitination |  |  |  | toxicity over a long-term treatment |  | 
3 | C/C(=N\NC(=O)c1ccccc1)c1ccc2c(c1)Nc1ccccc1S2 [UCM108] | significant accumulation of mature frataxin | induce frataxin precursor accumulation | accumulation of mature frataxin |  | strong fluorescence changes | lowest binding affinity constants |  |  | significant increase in aconitases activity | 
4 | COc1ccccc1C(=O)N/N=C(\C)c1ccc2c(c1)Nc1ccccc1S2 [UCM166] |  |  |  |  |  |  |  |  |  | efficiently promotes frataxin accumulation
